Mutagenic call data for twelve compounds are collected here from PubChem BioAssay AID1259407 (Chemical Carcinogenesis Research Information System (CCRIS), 2018).

This series deals with CCRIS mutagenicity, Ames/micronucleus/aberration tests. The series can be described thus: CCRIS mutagenicity studies.
[1] abbreviates: Test System: AMES SALMONELLA TYPHIMURIUM, Strain/Indicator: TA98, Metabolic Activation: NONE, Method: STANDARD PLATE.
Where [2] appears, read: Test System: AMES SALMONELLA TYPHIMURIUM, Strain/Indicator: TA98, Metabolic Activation: RAT, LIVER, S-9, AROCLOR 1254, Method: STANDARD PLATE.
[3] abbreviates: Test System: AMES SALMONELLA TYPHIMURIUM, Strain/Indicator: TA100, Metabolic Activation: NONE, Method: STANDARD PLATE.
Setting [4] is: Test System: AMES SALMONELLA TYPHIMURIUM, Strain/Indicator: TA100, Metabolic Activation: RAT, LIVER, S-9, AROCLOR 1254, Method: STANDARD PLATE.
The mark [5] stands for this setting: Test System: AMES SALMONELLA TYPHIMURIUM, Strain/Indicator: TA98, Metabolic Activation: NONE, Method: PREINCUBATION
The mark [6] stands for this setting: Test System: AMES SALMONELLA TYPHIMURIUM, Strain/Indicator: TA100, Metabolic Activation: NONE, Method: PREINCUBATION
The mark [7] stands for this setting: Test System: AMES SALMONELLA TYPHIMURIUM, Strain/Indicator: TA1535, Metabolic Activation: NONE, Method: STANDARD PLATE.
Setting [8] is: Test System: AMES SALMONELLA TYPHIMURIUM, Strain/Indicator: TA1535, Metabolic Activation: RAT, LIVER, S-9, AROCLOR 1254, Method: STANDARD PLATE.

Calls of active or inactive are those of the source. The rule behind the calls is not given here.

With `CC(CCl)OC(C)CCl` (stereo not drawn), the mutagenic call reads like this: (End Point: IN VITRO CHROMOSOMAL ABERRATIONS, Test System: CHINESE HAMSTER OVARY CELLS, Metabolic Activation: NONE) “inactive; negative; precipitation occurred at all doses”; (End Point: IN VITRO CHROMOSOMAL ABERRATIONS, Test System: CHINESE HAMSTER OVARY CELLS, Metabolic Activation: RAT, LIVER, S-9, AROCLOR 1254) “active; positive; precipitation occurred at 497, 730 and 993 ug/ml”.
On to `O=C(/C=C/c1ccccc1)c1ccc(F)cc1`, for which the mutagenic call under setting [1] is “inactive; negative”, the mutagenic call under setting [2] is “inactive; negative”, the mutagenic call under setting [3] is “inactive; negative” and the mutagenic call under setting [4] is “inactive; negative”.
As to `CCCCOc1cc(Br)ccc1C(=O)NOC(C)=O`, the mutagenic call is, setting by setting: under setting [3], “active; positive”; (Test System: AMES SALMONELLA TYPHIMURIUM, Strain/Indicator: TA100, Metabolic Activation: RAT, S-9, AROCLOR, Method: STANDARD PLATE) “active; positive”.
As for `COC(=O)N/N=C/c1c[n+]([O-])c2ccccc2[n+]1[O-]`, the mutagenic call is, setting by setting: under setting [5], “active; positive”; (Test System: AMES SALMONELLA TYPHIMURIUM, Strain/Indicator: TA98, Metabolic Activation: S-9, Method: PREINCUBATION) “active; positive”; (Test System: E. COLI, Strain/Indicator: WP2 UVRA (PKM101), Metabolic Activation: NONE) “active; positive”; (Test System: E. COLI, Strain/Indicator: WP2 UVRA (PKM101), Metabolic Activation: S-9) “active; positive”.
Turning to `ClCc1cccc2cc3ccc4cccc5ccc(c12)c3c45`, the mutagenic call is, setting by setting: under setting [1], “active; positive”; under setting [3], “active; positive”.
`O=[N+]([O-])c1ccccc1Br`: the mutagenic call is, setting by setting: under setting [5], “inactive; negative”; under setting [6], “inactive; negative”; (Test System: AMES SALMONELLA TYPHIMURIUM, Strain/Indicator: TA100, Metabolic Activation: RAT, LIVER, S-9, KANECHLOR 500, Method: PREINCUBATION) “active; positive”.
Regarding `O=C(O)CCCc1c[nH]c2ccccc12`, the mutagenic call is, setting by setting: (Test System: AMES SALMONELLA TYPHIMURIUM, Strain/Indicator: TA97A, Metabolic Activation: NONE, Method: STANDARD PLATE) “inactive; negative”; (Test System: AMES SALMONELLA TYPHIMURIUM, Strain/Indicator: TA97A, Metabolic Activation: RAT, LIVER, S-9, AROCLOR 1254, Method: STANDARD PLATE) “inactive; negative”; under setting [1], “inactive; negative”; under setting [2], “inactive; negative”; under setting [3], “inactive; negative”; under setting [4], “inactive; negative”. Besides, the mutagenic call is “inactive; negative” under setting [7]; “inactive; negative” under setting [8]; “inactive; negative” (Test System: AMES SALMONELLA TYPHIMURIUM, Strain/Indicator: TA1537, Metabolic Activation: NONE, Method: STANDARD PLATE); “inactive; negative” (Test System: AMES SALMONELLA TYPHIMURIUM, Strain/Indicator: TA1537, Metabolic Activation: RAT, LIVER, S-9, AROCLOR 1254, Method: STANDARD PLATE); “inactive; negative” (Test System: AMES SALMONELLA TYPHIMURIUM, Strain/Indicator: TA1538, Metabolic Activation: NONE, Method: STANDARD PLATE); “inactive; negative” (Test System: AMES SALMONELLA TYPHIMURIUM, Strain/Indicator: TA1538, Metabolic Activation: RAT, LIVER, S-9, AROCLOR 1254, Method: STANDARD PLATE).
As to `O[C@H]1[C@H]2O[C@H]2c2c(ccc3ccc4ccccc4c23)[C@@H]1O`, the mutagenic call is, setting by setting: (Test System: E. COLI, Strain/Indicator: CL101P, Metabolic Activation: NONE, Method: PREINCUBATION) “active; positive”; (Test System: E. COLI, Strain/Indicator: CL102P, Metabolic Activation: NONE, Method: PREINCUBATION) “active; positive”; (Test System: E. COLI, Strain/Indicator: CL103P, Metabolic Activation: NONE, Method: PREINCUBATION) “active; positive”; (Test System: E. COLI, Strain/Indicator: CL104P, Metabolic Activation: NONE, Method: PREINCUBATION) “active; positive”; (Test System: E. COLI, Strain/Indicator: CL105P, Metabolic Activation: NONE, Method: PREINCUBATION) “active; positive”; (Test System: E. COLI, Strain/Indicator: CL106P, Metabolic Activation: NONE, Method: PREINCUBATION) “active; positive”.
`[N-]=[N+]=NC[C@H](CO)Cc1ccccc1`: the mutagenic call (Test System: AMES SALMONELLA TYPHIMURIUM, Strain/Indicator: TA100, Metabolic Activation: RAT, LIVER, S-9, PCB, Method: PREINCUBATION) is “active; positive”.
On to `CS`, for which the mutagenic call is, setting by setting: under setting [5], “inactive; negative”; (Test System: AMES SALMONELLA TYPHIMURIUM, Strain/Indicator: TA98, Metabolic Activation: RAT, LIVER, S-9, SODIUM PHENOBARBITAL AND 5,6-BENZOFLAVONE, Method: PREINCUBATION) “inactive; negative”; under setting [6], “inactive; negative”; (Test System: AMES SALMONELLA TYPHIMURIUM, Strain/Indicator: TA100, Metabolic Activation: RAT, LIVER, S-9, SODIUM PHENOBARBITAL AND 5,6-BENZOFLAVONE, Method: PREINCUBATION) “inactive; negative”; (Test System: AMES SALMONELLA TYPHIMURIUM, Strain/Indicator: TA102, Metabolic Activation: NONE, Method: PREINCUBATION) “inactive; negative”; (Test System: AMES SALMONELLA TYPHIMURIUM, Strain/Indicator: TA102, Metabolic Activation: RAT, LIVER, S-9, SODIUM PHENOBARBITAL AND 5,6-BENZOFLAVONE, Method: PREINCUBATION) “inactive; negative”. The mutagenic call is “inactive; negative” (Test System: AMES SALMONELLA TYPHIMURIUM, Strain/Indicator: TA104, Metabolic Activation: NONE, Method: PREINCUBATION); “inactive; negative” (Test System: AMES SALMONELLA TYPHIMURIUM, Strain/Indicator: TA104, Metabolic Activation: RAT, LIVER, S-9, SODIUM PHENOBARBITAL AND 5,6-BENZOFLAVONE, Method: PREINCUBATION); “inactive; negative” (Test System: AMES SALMONELLA TYPHIMURIUM, Strain/Indicator: TA1535, Metabolic Activation: NONE, Method: PREINCUBATION); “inactive; negative” (Test System: AMES SALMONELLA TYPHIMURIUM, Strain/Indicator: TA1535, Metabolic Activation: RAT, LIVER, S-9, SODIUM PHENOBARBITAL AND 5,6-BENZOFLAVONE, Method: PREINCUBATION); “inactive; negative” (Test System: AMES SALMONELLA TYPHIMURIUM, Strain/Indicator: TA1537, Metabolic Activation: NONE, Method: PREINCUBATION); “inactive; negative” (Test System: AMES SALMONELLA TYPHIMURIUM, Strain/Indicator: TA1537, Metabolic Activation: RAT, LIVER, S-9, SODIUM PHENOBARBITAL AND 5,6-BENZOFLAVONE, Method: PREINCUBATION). For the same compound, the mutagenic call by setting is: (Test System: E. COLI, Strain/Indicator: WP2UVRA/PKM101, Metabolic Activation: NONE, Method: PREINCUBATION) “inactive; negative”; (Test System: E. COLI, Strain/Indicator: WP2UVRA/PKM101, Metabolic Activation: RAT, LIVER, S-9, SODIUM PHENOBARBITAL AND 5,6-BENZOFLAVONE, Method: PREINCUBATION) “inactive; negative”; (Test System: E. COLI, Strain/Indicator: WP2UVRA, Metabolic Activation: NONE, Method: PREINCUBATION) “inactive; negative”; (Test System: E. COLI, Strain/Indicator: WP2UVRA, Metabolic Activation: RAT, LIVER, S-9, SODIUM PHENOBARBITAL AND 5,6-BENZOFLAVONE, Method: PREINCUBATION) “inactive; negative”.
`CC(C)N(N)C(C)C`: the mutagenic call was “inactive; negative” under setting [3]; “inactive; negative” under setting [4]; “inactive; negative” (Test System: AMES SALMONELLA TYPHIMURIUM, Strain/Indicator: TA102, Metabolic Activation: NONE, Method: STANDARD PLATE); “inactive; negative” (Test System: AMES SALMONELLA TYPHIMURIUM, Strain/Indicator: TA102, Metabolic Activation: RAT, LIVER, S-9, AROCLOR 1254, Method: STANDARD PLATE); “inactive; negative” under setting [7]; “active; positive” under setting [8].
`Nc1cc(Cl)cc(Cl)c1O`: the mutagenic call runs as follows: under setting [5], “inactive; negative”; under setting [1], “inactive; negative”; under setting [6], “inactive; negative”; under setting [3], “inactive; negative”; (Test System: CHINESE HAMSTER V-79, Strain/Indicator: V-79/6-THIOGUANINE, Metabolic Activation: NONE) “inactive; negative”.
